Experiments:
Assay type in all cases: cell-based
IR [1] = assay: Western blot assays of fructose-dependent insulin signaling (IR autophosphorylation, p-AKT/AKT, p-FOXO1/FOXO1, p-GSK-3/GSK-3) in HepG2 cells; conditions: single hormone dose 50 nM
Experimental: Signal propagation was probed via a cytoplasmic kinase cascade and changes in metabolic gene expression in HepG2 cells. […] An overview of IR autophosphorylation (probed by anti-pTyr IR antibodies) and downstream phosphorylation of Ser-Thr protein kinase AKT (protein kinase B; ratio p-AKT/AKT), forkhead transcription factor 1 (p-FOXO1/FOXO1), and glycogen synthase kinase-3 (p-GSK-3/GSK-3) at a single hormone dose (50 nM) was provided by Western blot (WB; FIG. 4 D-F). […] The activity of FRI in the absence of fructose is low.

HepG2 cells = assay: PCR assays of ligand-selective metabolic gene regulation (PEPCK, ChREBP, SREBP) in HepG2 cells; conditions: control studies
Experimental: Insulin-signaling in hepatocytes extends to metabolic transcriptional regulation as recapitulated in HepG2 cells. […] Control studies were undertaken in the absence of insulin analogs to assess potential confounding changes in metabolic gene expression on addition of 0 to 100 mM fructose or 0 to 100 mM glucose.

IR [2] = assay: 96-well plate assay of dose-dependent and ligand-selective IR autophosphorylation
Experimental: Quantitative dose-dependent and ligand-selective IR autophosphorylation were evaluated in a 96-well plate assay (FIG. 5A). FRI triggered a robust signal on addition of 50 mM fructose whereas baseline activity in the absence of fructose was low.

insulin lispro [KP]
signaling by Western blot (IR autophosphorylation, p-AKT/AKT, p-FOXO1/FOXO1, p-GSK-3/GSK-3): dependence on fructose (IR [1]): fructose-independent signaling | fructose dependence of metabolic gene regulation (HepG2 cells): No fructose dependence | IR autophosphorylation signal on addition of 50 mM fructose (IR [2]; 50 mM fructose): high signaling activity | effect of addition of 50 mM glucose on IR autophosphorylation activity (IR [2]; 50 mM glucose): did not influence | IR autophosphorylation baseline activity in the absence of fructose (IR [2]; no fructose): high signaling activity

From patent publication US20230399373A1, “MOLECULAR DESIGNS OF GLUCOSE-RESPONSIVE AND GLUCOSE-CLEAVABLE INSULIN ANALOGUES” (THE TRUSTEES OF INDIANA UNIVERSITY, priority 2020, published 2023)
